Test results taken from ChEMBL document CHEMBL5506010, “Butyrylcholinesterase-Activated Near-Infrared Fluorogenic Probe for In Vivo Theranostics of Alzheimer's Disease” (J Med Chem, 2024).
Calls of active or inactive are those of the source. The calls are words filed in the database; no cut-off is given here.

What was measured:
[1] = Toxicity in APP/PS1 transgenic AD mouse model assessed as lung damage administered intravenously once every 2 days for 10 times and measured on day 30 by H and E staining based analysis; type: tissue-based; settings: in vivo, iv, 720 h, time 30 day
[2] = Toxicity in APP/PS1 transgenic AD mouse model assessed as liver damage administered intravenously once every 2 days for 10 times and measured on day 30 by H and E staining based analysis; type: tissue-based; settings: in vivo, iv, 720 h, time 30 day
PC-12 [3] = test: Binding affinity to BChE in rat PC-12 cells assessed as increase in fluorescence intensity incubated for 1 hrs by fluorescence based confocal laser scanning microscopic analysis; type: cell-based; settings: dose 1-10 µM
[4] = Neurotoxicity in mouse HT-22 cells assessed as reduction in cell viability at 50 uM; type: toxicity, cell-based; settings: ht-22, 50 µM
Homo sapiens [5] = species on record: Homo sapiens; test: Binding affinity to carboxylesterase (unknown origin) by fluorescence analysis
Mus musculus [6] = test: Antialzheimer activity in APP/PS1 transgenic AD mouse model assessed as increase in alteration performance administered intravenously once every 2 days for 10 times and measured on day 26 by Y maze test; type: functional, organism-based; settings: route iv, time 26.0 day
[7] = Stability of compound in male ICR mouse brain at 100 uM, iv measured after 24 hrs by fluorescence microplate reader; type: ADME, organism-based
SH-SY5Y [8] = test: Neuroprotective activity against amyloid-beta (1 to 42)-induced human SH-SY5Y cells assessed as increase in ACh level in culture medium at 10 to 20 uM incubated for 24 hrs by ELISA; type: functional, cell-based; settings: dose 10-20 µM
[9] = molecular target: Cholinesterase (Mus musculus) (UniProt Q03311); test: Binding affinity to BChE in mouse HT-22 cells assessed as increase in fluorescence at 10 uM incubated for 1 hrs in presence of DCF by laser confocal imaging analysis; type: cell-based
[10] = Stability of compound in PBS at pH 7.4 measured after 72 hrs by HPLC analysis; type: physicochemical; settings: buffer, pH 7.4, 72 h
PC-12 [11] = test: Binding affinity to BChE in rat PC-12 cells assessed as increase in fluorescence intensity preincubated with S11-1014 for 24 hrs followed by compound addition and measured after 1 hrs by fluorescence based confocal laser scanning microscopic analysis; type: cell-based
Cholinesterase [12] = molecular target: T1, Cholinesterase (Homo sapiens, UniProt P06276); test: Binding affinity to BChE in human LN-229 cells at 10 uM incubated for 1 hrs by fluorescence based confocal laser scanning microscopic analysis; type: cell-based
PC-12 [13] = test: Binding affinity to BChE in rat PC-12 cells assessed as increase in fluorescence intensity preincubated with tacrine for 24 hrs followed by compound addition and measured after 1 hrs by fluorescence based confocal laser scanning microscopic analysis; type: cell-based
Mus musculus [14] = test: Antialzheimer activity in APP/PS1 transgenic AD mouse model assessed as improvement in memory administered intravenously once every 2 days for 10 times followed by morris water maze training from day 21 to 25 and measured on day 26 by Morris water maze test; type: functional, organism-based; settings: route iv, time 26.0 day
[15] = Drug uptake in wildtype mouse brain assessed as increase in fluorescence at 100 uM, iv by fluorescence scanning analysis; type: ADME, organism-based; settings: in vivo
[16] = Toxicity in APP/PS1 transgenic AD mouse model assessed as spleen damage administered intravenously once every 2 days for 10 times and measured on day 30 by H and E staining based analysis; type: tissue-based; settings: in vivo, iv, 720 h, time 30 day
Cholinesterase [17] = molecular target: T1, Cholinesterase; test: Binding affinity to BChE in human SH-SY5Y cells at 10 uM incubated for 1 hrs by fluorescence based confocal laser scanning microscopic analysis; type: cell-based
[18] = Stability of compound at pH 12 measured within 3 mins by microplate reader analysis; type: physicochemical; settings: buffer, pH 12, 0.05 h
Mus musculus [19] = test: Antialzheimer activity in APP/PS1 transgenic AD mouse model assessed as increase in ACh level administered intravenously once every 2 days for 10 times and measured on day 30 by ELISA; type: functional, organism-based; settings: route iv, time 30.0 day
Mus musculus [20] = test: Antialzheimer activity in APP/PS1 transgenic AD mouse model assessed as decrease in amyloid beta (1 to 42) level administered intravenously once every 2 days for 10 times and measured on day 30 by ELISA; type: functional, organism-based; settings: route iv, time 30.0 day
[21] = molecular target: Cholinesterase (Mus musculus) (UniProt Q03311); test: Binding affinity to BChE in mouse HT-22 cells at 10 uM incubated for 1 hrs by fluorescence based confocal laser scanning microscopic analysis; type: cell-based
Cholinesterase [22] = molecular target: T1, Cholinesterase; test: Inhibition of human BChE using butyrylthiocholineiodide as substrate preincubated for 5 mins followed by substrate addition and measured immediately by Ellmans method
Cholinesterase [23] = molecular target: T1, Cholinesterase; test: Binding affinity to BChE (unknown origin) in PBS assessed as maximum initial reaction rate by fluorometric method
Cholinesterase [24] = molecular target: T1, Cholinesterase; test: Binding affinity to BChE (unknown origin) in PBS assessed as cyan coloured appearance of compound by UV/vis absorption analysis
[25] = Drug uptake in wildtype mouse brain assessed as increase in fluorescence at 100 uM, iv preadministered with tacrine for 4 hrs followed by compound administration by fluorescence scanning analysis; type: ADME, organism-based; settings: in vivo
[26] = Toxicity in APP/PS1 transgenic AD mouse model assessed as kidney damage administered intravenously once every 2 days for 10 times and measured on day 30 by H and E staining based analysis; type: tissue-based; settings: in vivo, iv, 720 h, time 30 day
[27] = Stability of compound in male ICR mouse brain at 100 uM, iv measured at 5 to 60 mins by fluorescence microplate reader; type: ADME, organism-based; settings: time 5-60 min
[28] = Drug accumulation in brain of APP/PS1 transgenic AD-mouse model at 100 uM, iv measured after 24 hrs […] by fluorescence imaging analysis; type: ADME, organism-based; settings: in vivo
Cholinesterase [29] = molecular target: T1, Cholinesterase; test: Binding affinity to BChE (unknown origin) in PBS assessed as Michaelis-menten constant by fluorometric method
SH-SY5Y [30] = test: Neuroprotective activity against amyloid-beta (1 to 42)-induced human SH-SY5Y cells assessed as decrease in amyloid beta (1 to 42) level in cell lysate at 10 to 20 uM incubated for 24 hrs by ELISA; type: functional, cell-based; settings: dose 10-20 µM
PC-12 [31] = test: Binding affinity to BChE in rat PC-12 cells at 10 uM incubated for 1 hrs by fluorescence based confocal laser scanning microscopic analysis; type: cell-based
Cholinesterase [32] = molecular target: T1, Cholinesterase; test: Binding affinity to BChE (unknown origin) in PBS assessed as maximum emission wavelength at 710 nm by fluorescence spectra analysis
SH-SY5Y [33] = test: Neuroprotective activity against amyloid-beta (1 to 42)-induced cell death in human SH-SY5Y cells assessed as increase in cell survival preincubated with compound for 2 hrs followed by amyloid beta (1 to 42) addition and measured after 24 hrs by MTT assay; type: functional, cell-based; settings: dose 10-50 µM, time 26.0 hrs
Homo sapiens [34] = species on record: Homo sapiens; test: Binding affinity to lysozyme (unknown origin) by fluorescence analysis
[35] = Drug uptake in brain of 6 weeks old AD-mouse model assessed as increase in fluorescence at 100 uM, iv by fluorescence scanning analysis; type: ADME, organism-based; settings: in vivo
[36] = Selectivity ratio of fluorescence intensity for binding affinity to AChE (unknown origin) in PBS to fluorescence intensity for binding affinity to BChE (unknown origin) in PBS
SH-SY5Y [37] = test: Neuroprotective activity against amyloid-beta (1 to 42)-induced human SH-SY5Y cells assessed as decrease in amyloid beta (1 to 42) level in culture medium at 10 to 20 uM incubated for 24 hrs by ELISA; type: functional, cell-based; settings: dose 10-20 µM
[38] = Toxicity in APP/PS1 transgenic AD mouse model assessed as effect on body weight administered intravenously once every 2 days for 10 times and measured on day 30; settings: in vivo, iv, 720 h, time 30 day

T1 sequence (P06276 whole entry): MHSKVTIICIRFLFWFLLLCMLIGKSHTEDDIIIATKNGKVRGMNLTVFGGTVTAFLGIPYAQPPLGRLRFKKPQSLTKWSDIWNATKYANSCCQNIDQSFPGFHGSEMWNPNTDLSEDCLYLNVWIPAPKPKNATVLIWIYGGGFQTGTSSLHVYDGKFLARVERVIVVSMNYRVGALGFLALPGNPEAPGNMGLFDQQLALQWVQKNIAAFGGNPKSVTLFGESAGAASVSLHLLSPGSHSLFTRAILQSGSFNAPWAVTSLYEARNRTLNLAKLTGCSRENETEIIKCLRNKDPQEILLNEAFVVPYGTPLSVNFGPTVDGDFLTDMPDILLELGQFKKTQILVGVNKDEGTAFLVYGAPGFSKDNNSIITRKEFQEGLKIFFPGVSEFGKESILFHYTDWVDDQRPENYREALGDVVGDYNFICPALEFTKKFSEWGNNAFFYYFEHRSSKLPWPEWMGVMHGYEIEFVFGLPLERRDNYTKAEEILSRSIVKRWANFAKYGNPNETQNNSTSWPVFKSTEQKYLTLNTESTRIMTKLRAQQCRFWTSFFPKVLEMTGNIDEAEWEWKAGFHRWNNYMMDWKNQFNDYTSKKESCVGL
Sequence of Cholinesterase (Mus musculus) (Q03311 whole entry): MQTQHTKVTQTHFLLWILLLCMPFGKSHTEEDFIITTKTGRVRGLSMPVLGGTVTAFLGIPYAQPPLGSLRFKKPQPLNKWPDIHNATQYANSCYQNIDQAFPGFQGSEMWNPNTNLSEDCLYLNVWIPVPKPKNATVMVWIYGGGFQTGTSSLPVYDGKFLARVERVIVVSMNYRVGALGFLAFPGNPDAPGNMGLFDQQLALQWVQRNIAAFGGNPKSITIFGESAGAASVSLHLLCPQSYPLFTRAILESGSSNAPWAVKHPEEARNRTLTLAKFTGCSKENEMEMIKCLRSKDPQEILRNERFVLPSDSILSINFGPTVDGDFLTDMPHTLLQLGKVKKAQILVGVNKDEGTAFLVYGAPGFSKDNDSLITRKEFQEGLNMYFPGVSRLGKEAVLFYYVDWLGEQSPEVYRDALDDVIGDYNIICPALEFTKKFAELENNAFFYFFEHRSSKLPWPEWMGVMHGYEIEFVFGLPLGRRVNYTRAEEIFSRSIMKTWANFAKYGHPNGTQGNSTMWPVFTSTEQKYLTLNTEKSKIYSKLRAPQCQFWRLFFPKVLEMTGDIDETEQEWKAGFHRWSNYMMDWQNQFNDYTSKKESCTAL

CCN(CC)Cc1ccccc1CNC(=O)c1cccc(NC(=O)c2cccc(C(=O)NCCn3cc(CCC[N+]4=C(/C=C/C5=C6Oc7cc(OC(=O)C8CC8)ccc7C=C6CCC5)C(C)(C)c5ccccc54)nn3)c2)c1.[I-]
Activity [1]: Non-Toxic
Activity [2]: Non-Toxic
Activity (PC-12 [3]): Dose-Dependent Effect
Activity [4]: Non-Toxic
Activity (Homo sapiens [5]): inactive
Activity (Mus musculus [6]): Active
Stability [7]: Unstable
Activity (SH-SY5Y [8]): Active
Activity [9]: inactive
Stability [10]: Stable
Activity (PC-12 [11]): inactive
Activity (Cholinesterase [12]): Active
Activity (PC-12 [13]): inactive
Activity (Mus musculus [14]): Active
Drug uptake [15]: Active
Activity [16]: Non-Toxic
Activity (Cholinesterase [17]): Active
Stability [18]: Unstable
Activity (Mus musculus [19]): Active
Activity (Mus musculus [20]): Active
Activity [21]: Active
IC50 (Cholinesterase [22]): 29.7 nM
Activity (Cholinesterase [23]): 3.02 µM/min
Activity (Cholinesterase [24]): Active
Drug uptake [25]: Not Active
Activity [26]: Non-Toxic
Stability [27]: Stable
Drug uptake [28]: Not Active
Activity (Cholinesterase [29]): 12.9 µM
Activity (SH-SY5Y [30]): Active
Activity (PC-12 [31]): Active
Activity (Cholinesterase [32]): Active
Activity (SH-SY5Y [33]): Dose-Dependent Effect
Activity (Homo sapiens [34]): inactive
Drug uptake [35]: Active
Selectivity ratio [36]: 22.8
Activity (SH-SY5Y [37]): Active
Activity [38]: Non-Toxic
